In ChEMBL document CHEMBL5380866, “Discovery of Selective P2Y6R Antagonists with High Affinity and In Vivo Efficacy for Inflammatory Disease Therapy” (J Med Chem, 2023):

Experiments:
P2Y purinoceptor 6 [1] = target: T1, P2Y purinoceptor 6 (Homo sapiens, UniProt Q15077); experiment: Antagonist activity at human P2Y6R expressed in HEK293 cells assessed as inhibition of UDP-induced IP3 production preincubated for 0.5 hrs followed by UDP stimulation and measured after 12 hrs by ELISA analysis; format: functional, cell-based
T1 sequence (Q15077 whole entry): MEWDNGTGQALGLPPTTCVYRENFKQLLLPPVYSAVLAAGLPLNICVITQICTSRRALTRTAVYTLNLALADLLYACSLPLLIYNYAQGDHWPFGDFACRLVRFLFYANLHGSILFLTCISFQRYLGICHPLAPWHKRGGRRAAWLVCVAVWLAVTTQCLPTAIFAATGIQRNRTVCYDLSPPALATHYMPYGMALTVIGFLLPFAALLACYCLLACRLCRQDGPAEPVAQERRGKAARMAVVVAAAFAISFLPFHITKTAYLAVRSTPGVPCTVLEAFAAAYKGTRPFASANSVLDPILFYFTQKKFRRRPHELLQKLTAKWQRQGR

P2Y purinoceptor 6 [2] = target: T1, P2Y purinoceptor 6; experiment: Antagonist activity at P2Y6R (unknown origin)
P2Y purinoceptor 14 = target: T2, P2Y purinoceptor 14 (Homo sapiens, UniProt Q15391); experiment: Antagonist activity at human P2Y14R expressed in HEK293 cells assessed as inhibition of UDPG-induced cAMP production preincubated for 0.5 hrs followed by UDPG stimulation by cAMP-glo analysis; format: functional, cell-based
T2 sequence (Q15391 whole entry): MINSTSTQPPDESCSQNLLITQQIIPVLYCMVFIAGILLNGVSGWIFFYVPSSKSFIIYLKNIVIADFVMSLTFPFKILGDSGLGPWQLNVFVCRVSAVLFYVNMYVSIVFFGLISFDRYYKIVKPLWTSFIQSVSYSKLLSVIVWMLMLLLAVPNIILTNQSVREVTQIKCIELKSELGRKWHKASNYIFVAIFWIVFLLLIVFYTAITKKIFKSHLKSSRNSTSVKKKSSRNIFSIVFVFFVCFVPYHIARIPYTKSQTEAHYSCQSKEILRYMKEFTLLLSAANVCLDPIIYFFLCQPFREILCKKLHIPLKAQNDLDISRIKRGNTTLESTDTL

Structure (SMILES) | IC50 (P2Y purinoceptor 6 [1]) | also measured
O=S(=O)(O)c1cc(N=C=S)ccc1/C=C/c1ccc(N=C=S)cc1S(=O)(=O)O | – | IC50 (P2Y purinoceptor 6 [2]): 5200 nM
O=C(O)c1cc(-c2ccccc2C2CCNCC2)c2ccc(-c3ccc(C(F)(F)F)cc3)cc2c1 | – | IC50 (P2Y purinoceptor 14): 5210 nM
Cc1ccc2cc(C3CC(c4ccco4)=NN3C(=O)CCC(=O)O)c(Cl)nc2c1 (configuration not stated) | 126 nM | –
CC(C)(C)n1nc(-c2nc3cc(Cl)ccc3[nH]2)cc1-c1ccccc1 | 216 nM | –

Further compounds by falling IC50 (P2Y purinoceptor 6 [1]), results first:

IC50 (P2Y purinoceptor 6 [1]) | Structure (SMILES) | also measured
87.8 nM | CC(C)n1nc(-c2nc3ccccc3s2)cc1-c1ccccc1 | –
64.1 nM | CC(C)(C)n1nc(-c2nc3cc(F)ccc3[nH]2)cc1-c1ccco1 | –
45.7 nM | CC(C)(C)n1nc(-c2nc3cc(Br)ccc3[nH]2)cc1-c1ccco1 | –
